Where two headings read alike, the source gives them in different places.
What was measured:
mGAT1 [1] = molecular target: T1, mGAT1 (Mus musculus, UniProt P31648); settings: Figure 2; cited from earlier work
T1 construct: expressed in transfected cells; host or cells: HEK-293

mGAT2 [2] = molecular target: T2, mGAT2 (Mus musculus, UniProt P31651); settings: cited from earlier work; for remaining [3H]GABA uptake mGAT2: 100 μM inhibitor
T2 construct: expressed in transfected cells; host or cells: HEK-293
T2 sequence (P31651 1-614): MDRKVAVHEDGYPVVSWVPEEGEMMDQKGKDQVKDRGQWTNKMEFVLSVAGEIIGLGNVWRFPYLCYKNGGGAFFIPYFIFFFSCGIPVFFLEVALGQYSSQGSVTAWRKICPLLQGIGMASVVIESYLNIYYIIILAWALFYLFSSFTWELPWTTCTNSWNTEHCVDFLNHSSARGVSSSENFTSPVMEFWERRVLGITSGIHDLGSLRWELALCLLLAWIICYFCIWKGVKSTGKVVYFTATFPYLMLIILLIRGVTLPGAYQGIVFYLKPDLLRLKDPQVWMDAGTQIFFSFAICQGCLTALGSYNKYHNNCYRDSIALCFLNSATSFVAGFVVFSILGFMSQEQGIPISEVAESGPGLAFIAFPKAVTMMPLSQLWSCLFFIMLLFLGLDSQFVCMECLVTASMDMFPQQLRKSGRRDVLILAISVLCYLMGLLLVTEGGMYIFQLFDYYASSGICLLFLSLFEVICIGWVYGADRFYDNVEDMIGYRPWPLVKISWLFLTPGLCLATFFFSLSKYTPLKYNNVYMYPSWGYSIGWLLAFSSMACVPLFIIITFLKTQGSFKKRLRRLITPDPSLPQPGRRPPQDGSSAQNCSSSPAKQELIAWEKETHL

mGAT3 [3] = molecular target: T3, mGAT3 (Mus musculus, UniProt P31649); settings: cited from earlier work
T3 construct: expressed in transfected cells; host or cells: HEK-293
T3 sequence (P31649 1-602): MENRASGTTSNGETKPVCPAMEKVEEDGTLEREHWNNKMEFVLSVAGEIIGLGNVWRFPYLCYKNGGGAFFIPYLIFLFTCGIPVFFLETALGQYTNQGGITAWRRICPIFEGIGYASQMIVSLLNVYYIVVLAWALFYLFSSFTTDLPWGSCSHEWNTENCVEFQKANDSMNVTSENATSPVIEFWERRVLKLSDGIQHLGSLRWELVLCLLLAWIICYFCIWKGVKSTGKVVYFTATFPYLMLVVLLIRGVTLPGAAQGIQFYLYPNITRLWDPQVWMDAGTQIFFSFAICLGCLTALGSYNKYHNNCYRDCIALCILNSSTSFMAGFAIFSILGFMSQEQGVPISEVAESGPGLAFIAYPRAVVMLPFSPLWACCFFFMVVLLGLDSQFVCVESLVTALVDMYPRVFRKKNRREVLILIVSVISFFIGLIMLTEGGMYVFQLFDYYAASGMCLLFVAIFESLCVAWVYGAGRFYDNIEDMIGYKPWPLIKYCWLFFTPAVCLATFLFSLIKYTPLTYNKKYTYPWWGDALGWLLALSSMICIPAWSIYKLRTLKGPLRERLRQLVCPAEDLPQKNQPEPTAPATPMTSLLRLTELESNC

mGAT4 [4] = molecular target: T4, mGAT4 (Mus musculus, UniProt P31650); settings: cited from earlier work
T4 construct: expressed in transfected cells; host or cells: HEK-293
T4 sequence (P31650 1-627): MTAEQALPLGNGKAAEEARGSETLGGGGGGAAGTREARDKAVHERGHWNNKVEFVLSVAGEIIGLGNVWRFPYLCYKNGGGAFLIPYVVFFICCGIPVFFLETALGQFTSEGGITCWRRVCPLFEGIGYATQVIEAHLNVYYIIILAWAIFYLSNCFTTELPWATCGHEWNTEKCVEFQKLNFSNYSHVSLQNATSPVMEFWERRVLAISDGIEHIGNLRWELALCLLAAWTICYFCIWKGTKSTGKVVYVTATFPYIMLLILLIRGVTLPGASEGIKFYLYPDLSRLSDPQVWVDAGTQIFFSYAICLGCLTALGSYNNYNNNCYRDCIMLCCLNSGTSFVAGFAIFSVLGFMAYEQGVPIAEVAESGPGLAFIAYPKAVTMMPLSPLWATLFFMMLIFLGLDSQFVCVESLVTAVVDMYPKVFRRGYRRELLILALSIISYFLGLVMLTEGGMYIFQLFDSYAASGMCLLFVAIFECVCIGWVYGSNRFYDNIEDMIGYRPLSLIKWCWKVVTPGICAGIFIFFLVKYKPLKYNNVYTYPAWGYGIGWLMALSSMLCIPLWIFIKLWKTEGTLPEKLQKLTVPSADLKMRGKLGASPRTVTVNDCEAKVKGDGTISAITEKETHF

mGAT1 [5] = molecular target: T1, mGAT1; settings: 100 μM inhibitor; cited from earlier work
mGAT1 [6] = molecular target: T1, mGAT1; assay: [3H]GABA uptake assay in HEK-293 cells stably expressing mGAT1; type: cell-based; settings: for IC50: [3H]GABA uptake, read-out: pIC50 ± SEM mGAT1 (converted); for remaining [3H]GABA uptake mGAT1: in the presence of 100 μM inhibitor
mGAT2 [7] = molecular target: T2, mGAT2; assay: [3H]GABA uptake assay in HEK-293 cells stably expressing mGAT2; type: cell-based; settings: for IC50: [3H]GABA uptake, read-out: pIC50 ± SEM mGAT2 (converted); for remaining [3H]GABA uptake mGAT2: in the presence of 100 μM inhibitor
mGAT3 [8] = molecular target: T3, mGAT3; assay: [3H]GABA uptake assay in HEK-293 cells stably expressing mGAT3; type: cell-based; settings: [3H]GABA uptake; read-out: pIC50 ± SEM mGAT3 (converted)
mGAT4 [9] = molecular target: T4, mGAT4; assay: [3H]GABA uptake assay in HEK-293 cells stably expressing mGAT4; type: cell-based; settings: [3H]GABA uptake; read-out: pIC50 ± SEM mGAT4 (converted)
mGAT1 [10] = molecular target: T1, mGAT1; assay: competitive MS binding assay with NO711 as unlabeled marker (LC-ESI-MS/MS); settings: in the presence of 100 μM inhibitor
Outline: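 Competitive MS binding with unlabeled NO711 as marker, quantified by LC–ESI-MS/MS. Compounds screened at 100 μM for inhibition of marker binding.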

## O=C(O)[C@@H]1CCCN(CCC#Cc2ccccc2-c2ccc(F)cc2Cl)C1 [Compound 7]
mGAT1 [1]
  pIC50 mGAT1: 7.68
mGAT2 [2]
  mGAT2 % (100μM): 55%
mGAT3 [3]; Figure 2
  pIC50 mGAT3: 4.56
mGAT4 [4]; Figure 2
  pIC50 mGAT4: 4.29

## O=C(O)C1=CCCN(CCO/N=C/c2ccccc2-c2ccc(Cl)cc2Cl)C1 [DDPM-2571]
mGAT3 [3]; [3H]GABA uptake
  pIC50 mGAT3: 4.35

## O=C1Nc2ccc(-c3cccs3)cc2C1=O [Compound 12]
mGAT1 [1]
  pIC50 mGAT1: < 3
mGAT2 [2]; Figure 2
  pIC50 mGAT2: 3.21

## Cc1ccsc1C(=CCCN(C)C(CCO)C(=O)NCc1ccccc1Cl)c1sccc1C (centres unmarked) [Compound 13]
mGAT2 [2]; [3H]GABA uptake
  pIC50 mGAT2: 4.98 ± 0.05
mGAT3 [3]; [3H]GABA uptake
  pIC50 mGAT3: 5.31 ± 0.04
mGAT1 [5]
  remaining NO711 binding mGAT1: 100 μM: 77%

## Cc1ccsc1C(=CCCN1CCC[C@@H](C(=O)O)C1)c1sccc1C [tiagabine, (R)-1-[4,4-bis(3-methyl-2-thienyl)-3-butenyl]-3-piperidinecarboxylic acid]
mGAT2 [2]
  remaining [3H]GABA uptake mGAT2: 100 μM: 52%
mGAT3 [3]; 100 μM inhibitor
  remaining [3H]GABA uptake mGAT3: 100 μM: 64%
mGAT3 [3]; 100μM
  mGAT3 % (100μM): 64%
mGAT4 [4]; 100 μM inhibitor
  remaining [3H]GABA uptake mGAT4: 100 μM: 73%
mGAT4 [4]; 100μM
  mGAT4 % (100μM): 73%

## NCCC(=O)O [β-alanine]
mGAT2 [2]; Figure 2
  pIC50 mGAT2: 2.96

## CN(CCC=C1c2ccccc2C=Cc2ccccc21)C(CO)C(=O)NCc1ccc(Cl)cc1 (centres unmarked) [Compound 55c, 2-((3-(5H-Dibenzo[a,d][7]annulen-5-ylidene)propyl)(methyl)amino)-N-(4-chlorobenzyl)-3-hydroxypropanamide]
mGAT1 [6]
  IC50: 28.8 µM
mGAT2 [7]
  IC50: 60.3 µM
mGAT3 [8]
  IC50: 15.1 µM
mGAT4 [9]
  IC50: 16.6 µM
mGAT1 [10]
  remaining NO711 binding mGAT1: 100 μM: 49%

## CCC(C(=O)NCc1ccccc1)N(C)CCON=C(c1ccccc1)c1ccccc1 (centres unmarked) [Compound 66a, N-Benzyl-2-((2-(((diphenylmethylene)amino)oxy)ethyl)(methyl)amino)butanamide]
mGAT1 [6]
  remaining [3H]GABA uptake mGAT1: 100 μM: 50%
mGAT2 [7]
  remaining [3H]GABA uptake mGAT2: 100 μM: 55%
mGAT3 [8]
  IC50: 16.6 µM
mGAT4 [9]
  IC50: 13.8 µM
mGAT1 [10]
  remaining NO711 binding mGAT1: 100 μM: 104%

## COc1ccc(C(OCCN2CCC[C@H](C(=O)O)C2)(c2ccc(OC)cc2)c2ccc(OC)cc2)cc1 [(S)-SNAP-5114, (S)-1-{2-[Tris(4-methoxyphenyl)methoxy]ethyl}piperidine-3-carboxylic acid]
mGAT2 [2]
  remaining [3H]GABA uptake mGAT2: 100 μM: 56%
  mGAT2 % (100μM): 56%

## CCOC(=O)[C@H](C)N(C)CCC=C1c2ccccc2C=Cc2ccccc21 [Compound 71, Ethyl N-(3-(5H-Dibenzo[a,d][7]annulen-5-ylidene)propyl)-N-methylalaninate]
mGAT1 [6]
  remaining [3H]GABA uptake mGAT1: 100 μM: 52%
mGAT2 [7]
  remaining [3H]GABA uptake mGAT2: 100 μM: 54%
mGAT3 [8]
  IC50: 21.9 µM
mGAT4 [9]
  IC50: 63.1 µM
mGAT1 [10]
  remaining NO711 binding mGAT1: 100 μM: 103%

## CN(CCC=C1c2ccccc2C=Cc2ccccc21)C(CO)C(=O)NCc1ccccc1Cl (centres unmarked) [Compound 55b, 2-((3-(5H-Dibenzo[a,d][7]annulen-5-ylidene)propyl)(methyl)amino)-N-(2-chlorobenzyl)-3-hydroxypropanamide]
mGAT1 [6]
  IC50: 25.7 µM
mGAT2 [7]
  IC50: 15.8 µM
mGAT3 [8]
  IC50: 10.7 µM
mGAT4 [9]
  IC50: 9.55 µM
mGAT1 [10]
  remaining NO711 binding mGAT1: 100 μM: 65%

## CN(CCON=C(c1ccccc1)c1ccccc1)C(CCO)C(=O)NCc1ccc(Cl)c(Cl)c1 (centres unmarked) [Compound 47c, N-[(3,4-Dichlorophenyl)methyl]-2-[(2-{[(diphenylmethylidene)amino]oxy}ethyl)(methyl)amino]-4-hydroxybutanamide]
mGAT1 [6]
  IC50: 21.9 µM
mGAT2 [7]
  IC50: 10.2 µM
mGAT3 [8]
  IC50: 11 µM
mGAT4 [9]
  IC50: 7.08 µM
mGAT1 [10]
  remaining NO711 binding mGAT1: 100 μM: 82%

## Cc1ccsc1C(=C1CCN([C@H](C[C@@H](C)O)C(=O)NCc2ccc(F)cc2)CC1)c1sccc1C (relative stereo) [2RS,4RS-37c, 2-{4-[Bis(3-methylthiophen-2-yl)methylidene]piperidin-1-yl}-N-[(4-fluorophenyl)methyl]-4-hydroxypentanamide]
mGAT1 [6]
  IC50: 17.8 µM
mGAT2 [7]
  IC50: 15.8 µM
mGAT3 [8]
  IC50: 11.5 µM
mGAT4 [9]
  IC50: 19.5 µM
mGAT1 [10]
  remaining NO711 binding mGAT1: 100 μM: 76%

## COc1ccc(C(OCCN2CCC[C@H](C(=O)O)C2)(c2ccc(OC)cc2)c2ccc(-c3ccc(C=O)cc3)cc2)cc1 [Compound 11]
mGAT2 [2]
  mGAT2 % (100μM): 73%
mGAT3 [3]; Figure 2
  pIC50 mGAT3: 5.16

Source: PMC8397297 (ACS Chemical Neuroscience, 2021)
